Assay results reported in patent US11098021B2, “Phenylsulfonamido-benzofuran derivatives and uses thereof in the treatment of proliferative diseases” (Memorial Sloan-Kettering Cancer Center, priority 2015, dated 2021).

Experiments:
Format in all cases: cell-based
[1] = test system: MCL-1-addicted cancer cell-line, H23; test: apoptosis induction in MCL-1-addicted cancer cell line H23; settings: H23 cells
[2] = test system: MCL-1-addicted cancer cell-line, H82; test: apoptosis induction in MCL-1-addicted cancer cell line H82; settings: H82 cells
[3] = test system: DMS53, SW1417, and H82 cell lines; test: selective apoptotic induction in cell lines addicted to BCL-2, BCL-XL or MCL-1; settings: MCL-1 addicted cancer cell line (H82) over BCL-2 (DMS53) or BCL-XL (SW1417) addicted cancer cell lines; FIG. 2B
[4] = 1 µM of compound, FIG. 1B legend

For `CCOC(=O)c1c(C)oc2cc(Br)c(NS(=O)(=O)c3ccc(OC)cc3)cc12` [Compound 1], the apoptosis induction ([1]; 1 μM of compound, FIG. 1B) was “robust apoptosis”, the apoptosis induction [1, 4] was “robust apoptosis” and the apoptosis induction ([2]; 1 μM of compound, FIG. 1B) was “robust apoptosis”. The apoptosis induction [2, 4] was “robust apoptosis” and the “selectivity of apoptosis induction” value [3] was “selectively induce apoptosis”.
